{"source": "patent US8071652B2", "about": "“Method of treating irritable bowel syndrome” (The Board of Regents of the University of Texas System, priority 2003, dated 2011)", "key": {"sensitized rats": {"test_system": "sensitized rats", "test": "Colorectal distention (CRD) sensitivity in visceral sensitization model", "format": "in vivo, rat", "description": "New born rats were sensitized by infusion of 0.2 mls of 0.5% acetic acid into the colon at P10, control animals received saline.\nAt eight weeks of age, rats in four treatment groups: control+vehicle (n=3), control+cni-1493 (n=3), sensitized+vehicle (n=8), sensitized+cni-1493 (n=8) were tested after administration of drug (dissolved in 2.5% mannitol, injected i.p. at 5mg/kg for four days) for sensitivity to colorectal distention (CRD). Vehicle injected animals received 2.5% mannitol in water.\nFor electromyographic (EMG) measurements of visceromotor responses, under anesthesia (Nembutal, 50 mg/kg i.p.), two electrodes were implanted in the abdominal wall muscles and externalized behind the head. Rats were allowed a one week recovery time from this surgery. Under mild sedation (Brevital, […]), a 7 cm flexible balloon constructed from a surgical glove finger attached to tygon tubing was inserted into the descending colon and rectum via the anus and held in place by taping the tubing to the tail. Rats were housed in small Lucite cubicles (20×8×8 cm) and were allowed to adapt for one hour. CRD was performed by rapidly inflating the balloon to constant pressure. Pressure was measured using a sphygmomanometer connected to a pressure transducer. Rats were given graded CRD (20, 40, 60, 80 mm Hg) applied for 20 seconds every 4 minutes. […]"}, "Myeloperoxidase (MPO)": {"test_system": "Myeloperoxidase (MPO)", "test": "Myeloperoxidase (MPO) assay of colon extracts", "format": "in vivo, rat", "details": "sensitized rats, 5 mg/kg i.p. for four days", "description": "Descending colons were placed in 10% buffered formalin and portions were frozen for myeloperoxidase (MPO) assays. Haematoxilin & Eosin stained parafin sections will be scored for inflammation by a pathologist.\nMyeloperoxidase (MPO) assays were performed as described (Bhatia et al., Proc Natl Acad Sci USA 95:4760-4756, 1998). Frozen colon was homogenized in 20 mM phosphate buffer pH 7.4 and cetrifuged at 10,000× g for 10 minutes at 4° C. Pellet was resuspended in 50 mM phosphate buffer, pH 6.0 containing 0.5% hexadecyltrimethylammonium bromide. Samples were subjected to one cycle of freeze thawing, were incubated at 6° C. for 2 hrs and cetrifuged at 10,000× g for 5 min at 4° C. Change in absorbance at 655 nm was measured in reaction mix containing 1.6 mM TMB (Sigma) and 0.3 mM H2O2 on a Beckman DU-64 spectrophotometer. Activity was normalized to protein as measured in the extracts. Protein was measured by the BCA method (Pierce, Rockford, Ill.). Activity was expressed as the change in absorbance/min/mg protein."}}, "note": "Entries after “also recorded” stand apart in the source; their conditions may differ.", "data": [{"compound": "CC(=NN=C(N)N)c1cc(NC(=O)CCCCCCCCC(=O)Nc2cc(C(C)=NN=C(N)N)cc(C(C)=NN=C(N)N)c2)cc(C(C)=NN=C(N)N)c1.Cl.Cl.Cl.Cl", "note": "[CNI-1493, N,N′-bis[3,5-diacetylphenl] decanediamidetetrakis[amidinohydrazone] tetrahvdrochloride]", "values": [{"measurement": "Chronic visceral hypersensitivity (CVH)", "setting": "sensitized rats; sensitized animals, CNI1493 treatment", "value": "ameliorates CVH"}, {"measurement": "Sensitivity to CRD", "setting": "sensitized rats; sensitized rats, 5 mg/kg i.p. for four days, graded CRD, vs vehicle, 5 mg/kg", "value": "significant effect; also recorded: significantly reduced"}, {"measurement": "MPO activity in colon", "setting": "Myeloperoxidase (MPO)", "value": "significantly lowered"}]}]}
